Measured values: patent publication US20210299176A1, “COMPOSITIONS AND METHODS FOR TREATING CANCER AND AUTOIMMUNE DISEASES” (CEDARS-SINAI MEDICAL CENTER, priority 2018, published 2021)

Key:
B16 melanoma = B16 melanoma implantation in C57 BL mice, treatment with GITR agonist; type: in vivo; settings: intraperitoneal 30 mg/kg twice per week vs DMSO control; p=0.0333, log rank
Protocol: After implantation of B16 melanoma, C57 BL mice underwent treatment with 11702 GITR agonist or DMSO control. (A) Animals lived longer after GITR agonist intraperitoneal 30 mg/kg treatment twice per week (p=0.0333, log rank). (B) Tumor volume was inhibited in 11702 treated animals (p<0.05, Anova).
After implantation of B16 melanoma, C57 BL mice underwent treatment with 11702 GITR agonist or DMSO control. […] (B) Tumor volume was inhibited in 11702 treated animals (p<0.05, Anova).

[1] = tested on: CD4+CD25- cells (T effector cells); experiment: T cell suppression assay (CFSE proliferation of T effector cells, FACS); type: cell-based, human; settings: for inhibition (decrease) of T cell proliferation: T effector without T-reg
Description: FIGS. 1A-1B show the results of where PBMC was isolated (Ficoll, GE Healthcare) from the WBC cone collected from healthy platelet donor. Cells were washed and passed through 40 um cell strainer before being stained with T cell surface antibodies. Then cells were put on cell sorter (BD FACSARIA III). Specific cell populations were collected as follows: CD4^+CD25^− cells (T effector cells), CD4^+CD25^+CD45RA^+CD127^− cells (T regulatory cells) and CD3^− cells (serve as Antigen Presenting Cells, APC). T effector cells were labeled with CellTrace CFSE (Invitrogen), heavily washed before cell number counting. Effector cells and T-regs were then mixed together at 1:1 ratio in culture media (RPMI 1640, 10% FBS, Pen-Strep and 1% NEAA) which enhanced with anti-CD3 (3 ug/ml) anti-CD28 (2 ug/ml) antibodies. APCs were treated with Mitomycin (50 ug/ml) for 30 minutes at 37° C., 5% CO2 incubator, then added to culture mix (APC:T-eff 2:1) as a proliferation co-stimulator. Cell mixture was incubated at 37° C., 5% CO2 for 6 days before being re-stained with T cell surface markers (CD4, CD25) and sent for FACS analysis. (A) T-eff fully stimulated; (B) T-eff fully stimulated+T-reg (1:1).
PBMC was isolated and specific human T cell populations were collected as follows: CD4^+CD25^− cells (T effector cells), CD4^+CD25^+CD45RA^+CD127^− cells (T regulatory cells) and CD3^− cells (serve as Antigen Presenting Cells, APC). T effector cells were labeled with CellTrace CFSE and effector cells and T-regs were then mixed together at 1:1 ratio in culture media (RPMI 1640, 10% FBS, Pen-Strep and 1% NEAA) which enhanced with anti-CD3 (3 ug/ml) anti-CD28 (2 ug/ml) antibodies. APCs were treated with Mitomycin (50 ug/ml) for 30 minutes at 37° C., 5% CO2 incubator, then added to culture mix (APC:T-eff 2:1) as a proliferation co-stimulator, incubated, and sent for FACS analysis. Molecule 11702 agonist and 11704 antagonist were added to treat groups respectively at a concentration gradient of 5 uM, 25 uM and 50 uM.
PBMC was isolated (Ficoll, GE Healthcare) from the WBC cone collected from healthy platelet donor. Cells were washed and passed through 40 um cell strainer before being stained with T cell surface antibodies. Then cells were put on cell sorter (BD FACSARIA III). Specific cell populations were collected as follows: CD4^+CD25^− cells (T effector cells), CD4^+CD25^+CD45RA^+CD127^− cells (T regulatory cells) and CD3^− cells (serve as Antigen Presenting Cells, APC). T effector cells were labeled with CellTrace CFSE (Invitrogen), heavily washed before cell number counting. Effector cells and T-regs were then mixed together at 1:1 ratio in culture media (RPMI 1640, 10% FBS, Pen-Strep and 1% NEAA) which enhanced with anti-CD3 (3 ug/ml) anti-CD28 (2 ug/ml) antibodies. […]

SMILES	survival of animals (B16 melanoma)	inhibition at 50 µM ([1]; Homo sapiens, T-cell, T effector + T-reg (1:1), 50 uM, read-out: inhibition (decrease) of proliferation compared to base line) [%]	effect on T effector cell population ([1]; T cell suppression assay, with and without Tregs, more effective in the presence of Tregs)	inhibition (decrease) of T cell proliferation ([1]; 5 uM)	inhibition (decrease) of T cell proliferation ([1]; 25 um)
OCC1OC(Nc2ccc(-c3ccc(NC4CC(O)C(CO)O4)cc3)cc2)CC1O (centres unmarked) [RMGL171102]	lived longer	–	–	–	–
O=C(CCCCC(=O)NN=Cc1cccc(O)c1)NN=Cc1cccc(O)c1 [RMGL171104]	–	55.9	dose dependent retraction of T effector cells	no significant effect	no significant effect
